Where two headings read alike, the source gives them in different places.
Legend:
Test in all cases: microbe, parasite or virus in culture
[1] = tested on: HIV strain IIIB (wild type)
Description: Compounds of the invention were tested for their potency against wild type virus and clinically isolated HIV strains harboring one or more mutations associated with resistance to reverse transcriptase inhibitors. Antiviral activity was evaluated using a cellular assay performed according to the following procedure.
The human T-cell line MT4 was engineered with Green Fluorescent Protein (GFP) and a HIV-specific promoter, HIV-1 long terminal repeat (LTR). This cell line, designated MT4 LTR-EGFP, can be used for the in vitro evaluation of anti-HIV activity of investigational compounds. In HIV-1 infected cells, the Tat protein is produced, which upregulates the LTR promotor and eventually leads to stimulation of the GFP reporter production, allowing to measure ongoing HIV-infection fluorometrically.
Analogously, MT4 cells were engineered with GFP and the constitutional cytomegalovirus (CMV) promotor. […] Cytotoxic investigational compounds reduce GFP levels of mock-infected MT4 CMV-EGFP cells.
The ratio of CC50 to EC50 is defined as the selectivity index (SI) and is an indication of the selectivity of the anti-HIV activity of the inhibitor. The ultimate monitoring of HIV-1 infection and cytotoxicity was done using a scanning microscope. Image analysis allows very sensitive detection of viral infection. Measurements were done before cell necrosis, which usually takes place about five days after infection, in particular measurements were performed three days after infection.
The columns IIIB, L100I, etc. in the table list the pEC50 (−log EC50) values against various strains IIIB, L100I, etc.; pSI lists the −log SI values.
Strain IIIB is wild type HIV strain.

HIV strain K103N + Y181C = assay type: cell-based, HIV-1; details: for K103N + Y181C pEC50 (−log EC50): HIV strain K103N + Y181C, MT4 LTR-EGFP cells, three days after infection
Text: (§1) Image analysis allows very sensitive detection of viral infection.

HIV strain L100I + K103N = assay type: cell-based, HIV-1; details: for L100I + K103N pEC50 (−log EC50): HIV strain L100I + K103N, MT4 LTR-EGFP cells, three days after infection
Text: as §1

HIV strain Y181C = assay type: cell-based, HIV-1; details: for Y181C pEC50 (−log EC50): HIV strain Y181C, MT4 LTR-EGFP cells, three days after infection
Text: as §1

[2] = target: HIV strain MDR (L100I, K103N, Y181C, E138G, V179I, L2214F, V278V/I and A327A/V in HIV reverse transcriptase); assay type: cell-based, HIV-1; details: for MDR pEC50 (−log EC50): MDR HIV strain (multiple RT mutations), MT4 LTR-EGFP cells, three days after infection
Text: as §1
“MDR” refers to a strain that contains mutations L100I, K103N, Y181C, E138G, V179I, L2214F, V278V/I and A327A/V in HIV reverse transcriptase.

[3] = wild type HIV strain IIIB, MT4 LTR-EGFP cells, GFP fluorescence, three days after infection

Cc1cc(C=CC#N)cc(C)c1Nc1cc(CNCc2cccs2)nc(Nc2ccc(C#N)cc2)n1 (mixture of isomers) [Compound 31]
IIIB pEC50 (−log EC50) [1, 3]: 8.41
K103N + Y181C pEC50 (−log EC50) (HIV strain K103N + Y181C): 7.71
L100I + K103N pEC50 (−log EC50) (HIV strain L100I + K103N): 7.13
Y181C pEC50 (−log EC50) (HIV strain Y181C): 7.48
MDR pEC50 (−log EC50) [2]: 5.48

COCCNCc1cc(Nc2c(C)cc(C=CC#N)cc2C)nc(Nc2ccc(C#N)cc2)n1 (mixture of isomers) [Compound 15]
IIIB pEC50 (−log EC50) [1, 3]: 8.54
K103N + Y181C pEC50 (−log EC50) (HIV strain K103N + Y181C): 7.86
L100I + K103N pEC50 (−log EC50) (HIV strain L100I + K103N): 7.42
Y181C pEC50 (−log EC50) (HIV strain Y181C): 7.89
MDR pEC50 (−log EC50) [2]: 5.55

Cc1cc(C=CC#N)cc(C)c1Nc1cc(CN2CCOCC2)nc(Nc2ccc(C#N)cc2)n1 (mixture of isomers) [Compound 12]
IIIB pEC50 (−log EC50) [1]: 8.62
K103N + Y181C pEC50 (−log EC50) (HIV strain K103N + Y181C): 6.78
L100I + K103N pEC50 (−log EC50) (HIV strain L100I + K103N): 6.50
Y181C pEC50 (−log EC50) (HIV strain Y181C): 7.28
MDR pEC50 (−log EC50) [2]: 5.57

C=CCNCc1cc(Nc2c(C)cc(C=CC#N)cc2C)nc(Nc2ccc(C#N)cc2)n1 (mixture of isomers) [Compound 24]
IIIB pEC50 (−log EC50) [1]: 9.16
K103N + Y181C pEC50 (−log EC50) (HIV strain K103N + Y181C): 7.84
L100I + K103N pEC50 (−log EC50) (HIV strain L100I + K103N): 7.31
Y181C pEC50 (−log EC50) (HIV strain Y181C): 8.14
MDR pEC50 (−log EC50) [2]: 5.75

Cc1cc(/C=C/C#N)cc(C)c1Nc1cc(C(=O)c2nccs2)nc(Nc2ccc(C#N)cc2)n1 [Compound 10]
EC50 ([1]; Human immunodeficiency virus 1, IIIB, 72 h, read-out: IIIB pEC50 (−log EC50) (converted)): 2.82 nM
EC50 (HIV strain K103N + Y181C; Human immunodeficiency virus 1, 72 h, read-out: K103N + Y181C pEC50 (−log EC50) (converted)): 10.7 nM
EC50 (HIV strain L100I + K103N; Human immunodeficiency virus 1, 72 h, read-out: L100I + K103N pEC50 (−log EC50) (converted)): 4.79 nM
EC50 (HIV strain Y181C; Human immunodeficiency virus 1, 72 h, read-out: Y181C pEC50 (−log EC50) (converted)): 3.47 nM
EC50 ([2]; Human immunodeficiency virus 1, 72 h, read-out: MDR pEC50 (−log EC50) (converted)): 562 nM

COCC(C)NCc1cc(Nc2c(C)cc(C=CC#N)cc2C)nc(Nc2ccc(C#N)cc2)n1 (mixture of isomers) [Compound 23]
IIIB pEC50 (−log EC50) [1, 3]: 8.80
K103N + Y181C pEC50 (−log EC50) (HIV strain K103N + Y181C): 7.78
L100I + K103N pEC50 (−log EC50) (HIV strain L100I + K103N): 6.98
Y181C pEC50 (−log EC50) (HIV strain Y181C): 7.72
MDR pEC50 (−log EC50) [2]: 5.67

Cc1cc(C=CC#N)cc(C)c1Nc1cc(CNCc2ccccn2)nc(Nc2ccc(C#N)cc2)n1 (mixture of isomers) [Compound 25]
IIIB pEC50 (−log EC50) [1, 3]: 7.63
K103N + Y181C pEC50 (−log EC50) (HIV strain K103N + Y181C): 7.30
Y181C pEC50 (−log EC50) (HIV strain Y181C): 7.03
MDR pEC50 (−log EC50) [2]: 5.75

Cc1cc(C=CC#N)cc(C)c1Nc1cc(CNCCc2ccccn2)nc(Nc2ccc(C#N)cc2)n1 (mixture of isomers) [Compound 20]
IIIB pEC50 (−log EC50) [1, 3]: 8.46
K103N + Y181C pEC50 (−log EC50) (HIV strain K103N + Y181C): 6.96
L100I + K103N pEC50 (−log EC50) (HIV strain L100I + K103N): 6.33
Y181C pEC50 (−log EC50) (HIV strain Y181C): 6.99
MDR pEC50 (−log EC50) [2]: 5.30

Cc1cc(C=CC#N)cc(C)c1Nc1cc(CNCC2COC(C)(C)O2)nc(Nc2ccc(C#N)cc2)n1 (mixture of isomers) [Compound 16]
IIIB pEC50 (−log EC50) [1]: 8.54
K103N + Y181C pEC50 (−log EC50) (HIV strain K103N + Y181C): 7.61
L100I + K103N pEC50 (−log EC50) (HIV strain L100I + K103N): 7.06
Y181C pEC50 (−log EC50) (HIV strain Y181C): 7.60
MDR pEC50 (−log EC50) [2]: 5.64

C=CCOCc1cc(Nc2c(C)cc(/C=C/C#N)cc2C)nc(Nc2ccc(C#N)cc2)n1 [Compound 2]
IIIB pEC50 (−log EC50) [1, 3]: 8.44
K103N + Y181C pEC50 (−log EC50) (HIV strain K103N + Y181C): 7.15
L100I + K103N pEC50 (−log EC50) (HIV strain L100I + K103N): 7.12
Y181C pEC50 (−log EC50) (HIV strain Y181C): 7.74
MDR pEC50 (−log EC50) [2]: 4.95

Cc1cc(C=CC#N)cc(C)c1Nc1cc(CNCC2CCCO2)nc(Nc2ccc(C#N)cc2)n1 (mixture of isomers) [Compound 28]
IIIB pEC50 (−log EC50) [1, 3]: 8.68
K103N + Y181C pEC50 (−log EC50) (HIV strain K103N + Y181C): 7.82
L100I + K103N pEC50 (−log EC50) (HIV strain L100I + K103N): 7.27
Y181C pEC50 (−log EC50) (HIV strain Y181C): 7.81
MDR pEC50 (−log EC50) [2]: 5.68

CON(C)Cc1cc(Nc2c(C)cc(C=CC#N)cc2C)nc(Nc2ccc(C#N)cc2)n1 (mixture of isomers) [Compound 18]
IIIB pEC50 (−log EC50) [1, 3]: 9.05
K103N + Y181C pEC50 (−log EC50) (HIV strain K103N + Y181C): 7.79
L100I + K103N pEC50 (−log EC50) (HIV strain L100I + K103N): 7.48
Y181C pEC50 (−log EC50) (HIV strain Y181C): 8.06
MDR pEC50 (−log EC50) [2]: 6.33

Cc1cc(/C=C/C#N)cc(C)c1Nc1cc(COC(N)=O)nc(Nc2ccc(C#N)cc2)n1 [Compound 33]
IIIB pEC50 (−log EC50) [1, 3]: 8.40
K103N + Y181C pEC50 (−log EC50) (HIV strain K103N + Y181C): 8.00
L100I + K103N pEC50 (−log EC50) (HIV strain L100I + K103N): 7.10
Y181C pEC50 (−log EC50) (HIV strain Y181C): 7.70
MDR pEC50 (−log EC50) [2]: 6.20

From US9006243B2, “HIV inhibiting 6-substituted pyrimidines” (Janssen R&D Ireland, priority 2006, dated 2015)
